Test results from patent publication US10272081B2, “SHIP1 modulators and methods related thereto” (Aquinox Pharmaceuticals (Canada) Inc., priority 2013, dated 2019).

Experiments:
His-hSHIP1 enzyme = target: T1, His-hSHIP1 enzyme (Homo sapiens, UniProt Q92835); test: His-hSHIP1 activity, approach 1 (phosphate release from IP4, Biomol Green); format: biochemical; conditions: activation of His-hSHIP1; IP4 50 μM; test compound 0-300 μM; no asterisk in Table 2
T1 construct: His
T1 sequence (Q92835 1-1189): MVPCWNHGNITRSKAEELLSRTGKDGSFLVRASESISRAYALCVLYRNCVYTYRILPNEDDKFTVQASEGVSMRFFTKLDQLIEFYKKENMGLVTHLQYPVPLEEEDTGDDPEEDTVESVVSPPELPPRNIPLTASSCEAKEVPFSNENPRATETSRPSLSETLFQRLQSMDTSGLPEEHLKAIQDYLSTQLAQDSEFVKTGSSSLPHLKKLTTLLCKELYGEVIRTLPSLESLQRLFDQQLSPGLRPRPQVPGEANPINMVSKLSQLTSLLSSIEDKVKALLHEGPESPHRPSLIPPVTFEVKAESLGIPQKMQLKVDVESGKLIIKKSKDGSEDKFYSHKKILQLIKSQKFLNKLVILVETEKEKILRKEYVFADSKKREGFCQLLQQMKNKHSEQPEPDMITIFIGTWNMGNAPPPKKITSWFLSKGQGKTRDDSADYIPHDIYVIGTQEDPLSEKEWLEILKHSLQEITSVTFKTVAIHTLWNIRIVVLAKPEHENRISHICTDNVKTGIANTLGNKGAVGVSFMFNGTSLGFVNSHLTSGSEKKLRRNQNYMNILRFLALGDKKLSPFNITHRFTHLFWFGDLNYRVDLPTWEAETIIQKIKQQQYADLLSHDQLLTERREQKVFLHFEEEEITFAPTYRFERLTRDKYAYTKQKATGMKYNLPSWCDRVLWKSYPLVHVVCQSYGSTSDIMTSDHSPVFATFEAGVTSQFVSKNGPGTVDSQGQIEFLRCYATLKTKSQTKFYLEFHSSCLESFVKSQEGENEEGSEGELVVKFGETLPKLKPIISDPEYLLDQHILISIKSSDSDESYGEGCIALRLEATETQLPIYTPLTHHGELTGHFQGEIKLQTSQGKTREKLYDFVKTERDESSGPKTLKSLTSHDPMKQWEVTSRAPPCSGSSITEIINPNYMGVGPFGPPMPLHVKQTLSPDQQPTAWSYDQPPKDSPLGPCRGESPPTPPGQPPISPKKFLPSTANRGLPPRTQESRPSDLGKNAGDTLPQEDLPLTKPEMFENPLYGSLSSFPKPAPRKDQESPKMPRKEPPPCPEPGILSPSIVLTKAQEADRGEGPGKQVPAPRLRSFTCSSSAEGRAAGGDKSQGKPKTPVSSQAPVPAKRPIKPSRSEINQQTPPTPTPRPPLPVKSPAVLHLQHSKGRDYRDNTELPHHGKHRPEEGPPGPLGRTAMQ
Summary of the method: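 Compounds at 0–300 μM final, carried in 10% ethanol, were incubated with 5-20 ng His-hSHIP1 and 50 μM IP4. Buffer was Tris pH 7.5 with 10 mM MgCl2 and Tween 20, 15 min at 37° C. Released phosphate was measured with Biomol Green as absorbance at 650 nm.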

[1] = test system: passive cutaneous anaphylaxis in mice; test: Passive cutaneous anaphylaxis in mice; format: in vivo; conditions: oral gavage, doses less than 20 mg/kg
Method: The activity of representative compounds on passive cutaneous anaphylaxis in mice was evaluated according to the procedures disclosed by Ovary, J Immunol 81, 355-357, 1958 and Halpern et al., Br J Pharmacol Chemother 20, 389-398, 1963, both of which are incorporated herein by reference in their entirety.
To induce a passive cutaneous anaphylaxis, mice undergo intradermal ear inoculation on their right ear with 25 ng in 20 μL of anti-DNP-IgE. The left ears are untreated and serve as negative controls. Twenty-four hours after inoculation, all mice are administered test compound by oral gavage (PO). Sixty minutes after oral administration, mice are given a tail vein injection of 2% Evan's Blue (0.2 μm filtered, in 200 μL saline) followed by a second tail IV injection of 100 μg DNP-HSA (in 200 μL). Sixty minutes following the DNP-HAS injection, mice are euthanized using CO2 inhalation. Subsequently, ear biopsies are performed by taking four millimetre punches from both ears, which then undergo Evan's Blue extraction using formamide incubation in 96 well plates. Eighty μL of eluents are transferred to flat-bottom 96-well plates and absorbance read using SpectraMax M5 spectrophotometer (Molecular Devices, Sunnyvale, Calif., USA) at 620 nm. Background readings from all samples are taken at 740 nm and subtracted from the 620 nm readings. Data are reported as OD.

[2] = test system: Akt phosphorylation in Jurkat (SHIP1−) lymphocytes; test: Akt phosphorylation in lymphocytes, Jurkat (Western blot); format: cell-based; set-up: key: +: inhibits Akt phosphorylation at 10 μM; −: no effect on Akt phosphorylation at 10 μM; conditions: 10 μM; IGF-1 stimulated Jurkat (PTEN−/SHIP1−) cells
Method: Jurkat (PTEN−/SHIP1−) or Molt-4 (PTEN−/SHIP1+) cells are starved in serum free RPMI for overnight. In a 15 mL conical tube, 2-3 million serum starved cells (1 million cells per mL) are treated with various concentrations of test compound (0.1, 1, or 10 μM final in 0.1% DMSO) for 30 min at 37° C. followed by stimulation with 100 ng/mL of IGF-1 for 1 hour at 37° C. After stimulation, cells are washed once with ice-cold DPBS and lysed with Lysis Buffer (20 mM Tris-HCl, pH 7.5, 140 mM NaCl, 1% NP-40, Complete Mini Protease Inhibitor Cocktail, 10 mM NaF, 1 mM Na3VO4, 1 mM β-glycerolphosphate) on ice for 30 min with vortexing every 10 min. Samples are then centrifuged at 13,000 rpm for 20 min, and supernatants are collected as total cell lysate samples. Protein concentration is determined using bicinchonic acid assay, and about 15 μg of total protein from each sample is loaded and separated on a 4-12% Tris-Glycine gel. After SDS-PAGE, proteins are transferred from the gel to a nitrocellulose membrane. The membrane is blocked in 5% BSA in PBS containing 0.1% Tween-20 (PBS-T) for 1 hour at room temperature before probing with primary antibodies for overnight at 4° C. The following antibodies are used: mouse anti-SHIP1 (1:500 dilution; Santa Cruz, Calif., USA), rabbit anti-phospho-Akt(Ser473) (1:1000 dilution; Cell Signaling Technologies, MA, USA), rabbit anti-Akt (1:1000; Cell Signaling Technologies, MA, USA), and rabbit anti-actin (1:2000; Cell Signaling Technologies, MA, USA). The membrane is then incubated with goat anti-rabbit or anti-mouse secondary antibodies (1:3000) for 1 hour at room temperature. Target proteins on the membrane are detected with ECL solution and exposed on a film.

[3] = test system: carrageenan paw edema in mice; test: Carrageenan paw edema in mice; format: in vivo; conditions: 30 mg/kg orally one hour before carrageenan, 4 hours after carrageenan
Method: The activity of representative compounds on carrageenan paw edema in mice was evaluated according to the procedures disclosed by Winter et al., Proc Soc Exp Biol Med 111, 544-547, 1962 which is incorporated herein by reference in its entirety.
To induce edema in the paw, test compounds were administered orally one hour before intraplantar injection of the right hind paw with carrageenan (50 μL of 1% suspension). Hind paw edema, as a measure of inflammation, was recorded using a plethysmometer (Ugo Basile, Italy) 4 hours after λ-carrageenan administration.

Scoring, Approach 1 (% increase relative to background) (His-hSHIP1 enzyme)	SMILES	% Inhibition of allergen-induced passive cutaneous anaphylaxis [1]	Jurkat (SHIP1 −), Akt phosphorylation [2]	inhibition of carrageenan-induced paw edema [3] [%]
+++ (x ≥65)	CC(=O)N[C@@H]1C[C@H]2C(C)(C)CCC[C@]2(C)[C@@H](C(=O)c2cc(O)cc(O)c2)[C@@H]1C [Compound No. 57, N-[(2R,3S,4S,4aS,8aS)-4-[(3,5-dihydroxyphenyl)carbonyl]-3,4a,8,8-tetramethyl-decahydronaphthalen-2-yl]acetamide]	+++ (>50% inhibition)	−	
+++ (x ≥65)	C[C@H]1CC[C@H]2C(C)(C)CCC[C@]2(C)[C@H]1CC(=O)c1cc(O)cc(O)c1 [Compound No. 48, 2-[(1S,2S,4aS,8aR)-2,5,5,8a-tetramethyl-decahydronaphthalen-1-yl]-1-(3,5-dihydroxyphenyl)ethan-1-one]			21
